These results are taken from PubChem BioAssay AID256 (DTP/NCI, 2004).

Structures are written as SMILES. “And” between values parts separate entries of the source, which are not always exact repeats. Equal entries are not always repeated. Toxic doses and inconclusive results are not listed.

In this test the test system is CD2F1 mice, L1210 leukemia ip, survival T/C. Put plainly: NCI In Vivo Anticancer Drug Screen. Data for tumor model L1210 Leukemia (intraperitoneal) in CD2F1 (CDF1) mice. As to conditions: higher = longer survival. An outline of the steps:
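Read-out first: treated-group measurement over vehicle-control measurement, expressed as a ratio. Animals bore a transplanted tumor line and were dosed with compound or vehicle.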

The mark [1] stands for this setting: endpoint: mean survival time, dose: 100.0 mg/kg/injection, schedule: Q01DX001 (ip), vehicle: Klucel (hydroxypropylcellulose) (HPC).
The mark [2] stands for this setting: endpoint: mean survival time, dose: 200.0 mg/kg/injection, schedule: Q01DX001 (ip), vehicle: Klucel (hydroxypropylcellulose) (HPC).
Where [3] appears, read: endpoint: mean survival time, dose: 100.0 mg/kg/injection, schedule: Q01DX001 (ip), vehicle: saline.
Where [4] appears, read: endpoint: mean survival time, dose: 200.0 mg/kg/injection, schedule: Q01DX001 (ip), vehicle: saline.
Setting [5] is: endpoint: mean survival time, dose: 400.0 mg/kg/injection, schedule: Q01DX001 (ip), vehicle: saline.
Setting [6] is: endpoint: mean survival time, dose: 100.0 mg/kg/injection, schedule: Q04DX002 (ip), vehicle: saline with Tween-80.
The mark [7] stands for this setting: endpoint: mean survival time, dose: 50.0 mg/kg/injection, schedule: Q01DX001 (ip), vehicle: Klucel (hydroxypropylcellulose) (HPC).
Setting [8] is: endpoint: mean survival time, dose: 100.0 mg/kg/injection, schedule: Q04DX003 (ip), vehicle: saline with Tween-80.
Setting [9] is: endpoint: mean survival time, dose: 200.0 mg/kg/injection, schedule: Q04DX003 (ip), vehicle: saline with Tween-80.
Where [10] appears, read: endpoint: mean survival time, dose: 400.0 mg/kg/injection, schedule: Q04DX003 (ip), vehicle: saline with Tween-80.
Setting [11] is: endpoint: mean survival time, dose: 100.0 mg/kg/injection, schedule: Q01DX009 (ip), vehicle: saline with Tween-80.
The mark [12] stands for this setting: endpoint: mean survival time, dose: 200.0 mg/kg/injection, schedule: Q01DX009 (ip), vehicle: saline with Tween-80.
Where [13] appears, read: endpoint: mean survival time, dose: 400.0 mg/kg/injection, schedule: Q01DX009 (ip), vehicle: saline with Tween-80.
Where [14] appears, read: endpoint: mean survival time, dose: 50.0 mg/kg/injection, schedule: Q01DX009 (ip), vehicle: saline with Tween-80.

Take `C[Si](C)(C)/C(=N/Nc1ccc([N+](=O)[O-])cc1[N+](=O)[O-])c1ccccc1`: the T/C is, setting by setting: under setting [1], 97 % of control; under setting [2], 95 % of control; (endpoint: mean survival time, dose: 400.0 mg/kg/injection, schedule: Q01DX001 (ip), vehicle: Klucel (hydroxypropylcellulose) (HPC)) 92 % of control.
Regarding `COC(=O)c1cc(-c2ccccc2)nc2c1ccc1ccccc12`, the T/C under setting [3] is 94 % of control.
With `CC(=O)OC1OC(C)C(OC(C)=O)C(OC(C)=O)C1NC(=O)N(CCCl)N=O` (configuration not stated), the T/C was 508 % of control (endpoint: mean survival time, dose: 17.0 mg/kg/injection, schedule: Q01DX001 (ip), vehicle: saline with Tween-80); 535 % of control (endpoint: mean survival time, dose: 26.0 mg/kg/injection, schedule: Q01DX001 (ip), vehicle: saline with Tween-80); 389 % of control (endpoint: mean survival time, dose: 40.0 mg/kg/injection, schedule: Q01DX001 (ip), vehicle: saline with Tween-80).
Take `CC(=O)[c-]1[c-][c-][c-][c-]1.[Fe+2].[c-]1[c-][c-][cH-][c-]1`: the T/C was 102 % of control under setting [4] and 100 % of control under setting [5].
For the molecule `CCOC(=O)CC1NCCS1` (configuration not stated), the T/C runs as follows: under setting [3], 97 % of control; under setting [4], 96 % of control; under setting [5], 94 % of control.
`O=S(=O)(O)C1=CC(=N\Cl)/C=CC/1=N/Cl`: the T/C (endpoint: median survival time, dose: 50.0 mg/kg/injection, schedule: Q01DX009 (ip), vehicle: saline with Tween-80) was 110 % of control; the T/C (endpoint: median survival time, dose: 100.0 mg/kg/injection, schedule: Q01DX009 (ip), vehicle: saline with Tween-80) was 119 % of control; the T/C (endpoint: median survival time, dose: 200.0 mg/kg/injection, schedule: Q01DX009 (ip), vehicle: saline with Tween-80) was 108 % of control; the T/C (endpoint: median survival time, dose: 400.0 mg/kg/injection, schedule: Q01DX009 (ip), vehicle: saline with Tween-80) is 120 % of control.
With `NNc1ccccc1F`, the T/C by setting is: (endpoint: mean survival time, dose: 25.0 mg/kg/injection, schedule: Q04DX002 (ip), vehicle: saline with Tween-80) 97 % of control; (endpoint: mean survival time, dose: 50.0 mg/kg/injection, schedule: Q04DX002 (ip), vehicle: saline with Tween-80) 90 % of control; under setting [6], 93 % of control; (endpoint: mean survival time, dose: 100.0 mg/kg/injection, schedule: Q04DX003 (ip), vehicle: saline sonified) 87 % of control.
In the case of `Cc1ccc2c(c1)CC(C)(C)O2`, the T/C under setting [7] was 102 % of control, the T/C under setting [1] is 93 % of control and the T/C under setting [2] was 102 % of control.
Consider `O=S(=O)(O)C1CCC[N-]C1.O=S(=O)(O)C1CCC[N-]C1.[Cl][Pt+2]([Cl])([Cl])[Cl]` (configuration not stated), for which the T/C (endpoint: mean survival time, dose: 12.5 mg/kg/injection, schedule: Q01DX009 (ip), vehicle: water) is 102 % of control; the T/C (endpoint: mean survival time, dose: 25.0 mg/kg/injection, schedule: Q01DX009 (ip), vehicle: water) is 102 % of control; the T/C (endpoint: mean survival time, dose: 50.0 mg/kg/injection, schedule: Q01DX009 (ip), vehicle: water) is 105 % of control; the T/C (endpoint: mean survival time, dose: 100.0 mg/kg/injection, schedule: Q01DX009 (ip), vehicle: water) was 110 % of control.
With `FC(F)(F)c1nn[nH]n1`, the T/C runs as follows: (endpoint: mean survival time, dose: 100.0 mg/kg/injection, schedule: Q01DX009 (ip), vehicle: saline) 100 % of control; (endpoint: mean survival time, dose: 200.0 mg/kg/injection, schedule: Q01DX009 (ip), vehicle: saline) 104 % of control; (endpoint: mean survival time, dose: 400.0 mg/kg/injection, schedule: Q01DX009 (ip), vehicle: saline) 98 % of control.
Consider `OCCCCSc1ccccc1`, for which the T/C is 98 % of control (endpoint: mean survival time, dose: 75.0 mg/kg/injection, schedule: Q04DX003 (ip), vehicle: saline); 98 % of control (endpoint: mean survival time, dose: 150.0 mg/kg/injection, schedule: Q04DX003 (ip), vehicle: saline); 91 % of control (endpoint: mean survival time, dose: 300.0 mg/kg/injection, schedule: Q04DX003 (ip), vehicle: saline).
As for `CCCCN(CCCC)CC(O)c1cc(-c2ccc(Cl)cc2)nc2c(OC)ccc(OC)c12` (configuration not stated), the T/C reads like this: under setting [8], 98 % of control; under setting [9], 102 % of control; under setting [10], 98 % of control.
On to `CC1(C)C2=CCCC3(OCCO3)C2(C)CCC1O` (configuration not stated), for which the T/C is 104 % of control under setting [11]; 98 % of control under setting [8]; 106 % of control under setting [12]; 98 % of control under setting [9]; 98 % of control under setting [13]; 101 % of control under setting [10].
With `CC1=CCCC1`, the T/C is 98 % of control (endpoint: mean survival time, dose: 100.0 mg/kg/injection, schedule: Q04DX003 (ip), vehicle: saline); 101 % of control (endpoint: mean survival time, dose: 200.0 mg/kg/injection, schedule: Q04DX003 (ip), vehicle: saline); 95 % of control (endpoint: mean survival time, dose: 400.0 mg/kg/injection, schedule: Q04DX003 (ip), vehicle: saline).
Take `O=CNc1cccc2ccc3cc4ccccc4cc3c12`: the T/C reads like this: under setting [14], 90 % of control; under setting [11], 88 % of control; under setting [8], 94 % of control; under setting [12], 93 % of control; under setting [9], 88 % of control.
In the case of `O=C(O)C1=NN(c2cccc([N+](=O)[O-])c2)C(=O)C1`, the T/C under setting [11] was 114 % of control; the T/C under setting [8] is 98 % of control; the T/C under setting [12] is 101 % of control; the T/C under setting [9] is 104 % of control; the T/C under setting [13] was 95 % of control; the T/C under setting [10] is 102 % of control.
On to `O=C(O)c1[nH]c(=O)[nH]c(=O)c1F.[Ga]`, for which the T/C reads like this: (endpoint: mean survival time, dose: 54.0 mg/kg/injection, schedule: Q01DX001 (ip), vehicle: saline with Tween-80) 123 % of control; (endpoint: mean survival time, dose: 177.0 mg/kg/injection, schedule: Q01DX001 (ip), vehicle: saline with Tween-80) 159 % of control.
As for `O=c1cc(NCCCc2ccccc2)[nH]c(=O)[nH]1`, the T/C is, setting by setting: (endpoint: mean survival time, dose: 100.0 mg/kg/injection, schedule: Q01DX001 (ip), vehicle: saline with Tween-80) 100 % of control; (endpoint: mean survival time, dose: 200.0 mg/kg/injection, schedule: Q01DX001 (ip), vehicle: saline with Tween-80) 92 % of control; (endpoint: mean survival time, dose: 400.0 mg/kg/injection, schedule: Q01DX001 (ip), vehicle: saline with Tween-80) 93 % of control.
In the case of `COc1ccc(Cc2nnc(Cc3ccc(OC)c(OC)c3)nn2)cc1OC`, the T/C by setting is: under setting [8], 101 % of control; under setting [9], 93 % of control.
For the molecule `Nc1nc(OCc2ccccc2)ncc1C(=O)NCC(=O)O`, the T/C (endpoint: mean survival time, dose: 12.5 mg/kg/injection, schedule: Q01DX009 (ip), vehicle: saline with Tween-80) was 105 % of control; the T/C (endpoint: mean survival time, dose: 25.0 mg/kg/injection, schedule: Q01DX009 (ip), vehicle: saline with Tween-80) was 100 % of control; the T/C under setting [14] is 104 % of control.
As for `CCOC(=O)C(=O)C(C#N)c1ccccc1` (configuration not stated), the T/C runs as follows: (endpoint: mean survival time, dose: 25.0 mg/kg/injection, schedule: Q01DX001 (ip), vehicle: Klucel (hydroxypropylcellulose) (HPC)) 92 % of control; under setting [7], 100 % of control; under setting [1], 100 % of control and 106 % of control.
Consider `CC(=O)N(C)c1ccc(NC(=O)Nc2ccc(Cl)cc2C)cc1`, for which the T/C is, setting by setting: under setting [14], 91 % of control; under setting [11], 88 % of control; under setting [12], 91 % of control.
`Cc1ccc(C(=O)O)cc1`: the T/C runs as follows: under setting [8], 101 % of control; under setting [9], 93 % of control; under setting [10], 97 % of control.
As for `N#C/C=C/C#N`, the T/C (endpoint: mean survival time, dose: 0.15 mg/kg/injection, schedule: Q01DX009 (ip), vehicle: saline) was 105 % of control; the T/C (endpoint: mean survival time, dose: 0.3 mg/kg/injection, schedule: Q01DX009 (ip), vehicle: saline) was 102 % of control; the T/C (endpoint: mean survival time, dose: 0.6 mg/kg/injection, schedule: Q01DX009 (ip), vehicle: saline) is 102 % of control.
For the molecule `CC1(C)CN(c2ccccc2)NC1=O`, the T/C by setting is: (endpoint: mean survival time, dose: 1.25 mg/kg/injection, schedule: Q01DX009 (ip), vehicle: Klucel (hydroxypropylcellulose) (HPC)) 101 % of control; (endpoint: mean survival time, dose: 2.5 mg/kg/injection, schedule: Q01DX009 (ip), vehicle: Klucel (hydroxypropylcellulose) (HPC)) 98 % of control; (endpoint: mean survival time, dose: 5.0 mg/kg/injection, schedule: Q01DX009 (ip), vehicle: Klucel (hydroxypropylcellulose) (HPC)) 101 % of control.
With `NC(=S)N/N=C/c1ccc(OC(=O)COc2ccccc2)cn1`, the T/C runs as follows: (endpoint: mean survival time, dose: 88.0 mg/kg/injection, schedule: Q04DX003 (ip), vehicle: saline with Tween-80) 123 % of control; under setting [6], 118 % of control; (endpoint: mean survival time, dose: 200.0 mg/kg/injection, schedule: Q04DX002 (ip), vehicle: saline with Tween-80) 122 % of control; under setting [9], 118 % of control; (endpoint: mean survival time, dose: 400.0 mg/kg/injection, schedule: Q04DX002 (ip), vehicle: saline with Tween-80) 152 % of control and 155 % of control; (endpoint: mean survival time, dose: 800.0 mg/kg/injection, schedule: Q04DX002 (ip), vehicle: saline with Tween-80) 174 % of control.
